In article PMC9960827, “Cloning and Characterization of Trypanosoma congolense and T. vivax Nucleoside Transporters Reveal the Potential of P1-Type Carriers for the Discovery of Broad-Spectrum Nucleoside-Based Therapeutics against Animal African Trypanosomiasis” (International Journal of Molecular Sciences, 2023):
Where two headings read alike, the source gives them in different places.

Legend:
L. mexicana Cas9 = experiment: Resazurin drug sensitivity assay, LmexCas9; type: cell-based, Leishmania mexicana; details: read-out: LmexCas9 EC50
Method: (§1) EC50 values were determined by plotting to an equation for a sigmoid curve with variable slope (GraphPad Prism 8). All values were the average of at least three independent determinations on different days.

L. mexicana SUPKO+TcoAT1 = experiment: microbe, parasite or virus in culture; type: cell-based, Leishmania mexicana; details: for EC50: read-out: SUPKO+TcoAT1 EC50; for SUPKO+TcoAT1 RF (SUPKO): Resistance Factor relative to SUPKO
Method: as §1

L. mexicana SUPKO+TvxNT3 = experiment: microbe, parasite or virus in culture; type: cell-based, Leishmania mexicana; details: for EC50: read-out: SUPKO+TvxNT3 EC50; for SUPKO+TvxNT3 RF (SUPKO): Resistance Factor relative to SUPKO
Method: as §1

L. mexicana SUPKO = experiment: microbe, parasite or virus in culture; type: cell-based, Leishmania mexicana; details: for SUPKO RF (Cas9): Resistance Factor = EC50(SUPKO)/EC50(Cas9)
Method: as §1

T. congolense IL3000 [1] = experiment: Alamar Blue (resazurin) assay, T. congolense IL3000; type: cell-based, Trypanosoma congolense; details: Trypanosoma congolense, read-out: T. congolense IL3000 EC50
Method: as §1

T. congolense 6C3 [2] = experiment: microbe, parasite or virus in culture; type: cell-based, Trypanosoma congolense; details: for EC50: Trypanosoma congolense, diminazene resistant strain, resazurin, read-out: T. congolense 6C3 EC50; for T. congolense 6C3 RF: resistance factor = EC50 (test strain)/EC50(control strain)
Method: as §1

T.b.b. B48 [3] = experiment: Alamar Blue (resazurin) assay, T. b. brucei B48; type: cell-based, Trypanosoma brucei brucei; details: Trypanosoma brucei, read-out: T.b.b. B48 EC50
Method: as §1

T. evansi [4] = experiment: Alamar Blue (resazurin) assay, T. evansi; type: cell-based, Trypanosoma evansi; details: Trypanosoma evansi, read-out: T. evansi EC50
Method: as §1

T. equiperdum [5] = experiment: Alamar Blue (resazurin) assay, T. equiperdum; type: cell-based, Trypanosoma equiperdum; details: Trypanosoma equiperdum, read-out: T. equiperdum EC50
Method: as §1

[6] = Resazurin toxicity assay on human embryonic kidney cells; type: cell-based; details: human
Method: as §1

[7] = test system: human embryonic kidney (HEK) cells; experiment: as above; type: cell-based; details: for SI T. congolense: selectivity index = EC50 (HEK cells)/EC50 (T. congolense); for SI T. equiperdum: selectivity index = EC50 (HEK cells)/EC50 (T. equiperdum); for SI T. evansi: selectivity index = EC50 (HEK cells)/EC50 (T. evansi)
Method: as §1

T. vivax [8] = test system: T. vivax; parameters: method as in Mabille et al. [69]; details: added for comparison only; ref Mabille et al. [69]; cited from earlier work
TcoAT1 = type: cell-based, Trypanosoma congolense
Text: (§2) The information for the T. congolense adenosine transporter (TcoAT1) and four putative T. vivax nucleoside transporters was obtained in the TritrypDB (tritrypdb.org/tritrypdb) genome database. Primers were designed to flank each gene upstream of the 5′ end (forward) and downstream of the 3′ end (reverse) as described (primer sequences in Supplementary Table S2). Following amplification from the genomic DNA of T. congolense or T. vivax, DNA for each extracted gene was ligated into the pNUS-HcN expression vector doubly digested with NdeI using the NEBuilder kit according to the manufacturer’s instructions (New England Biolabs). Construct was transformed into competent E. coli cells, and ligation was confirmed by restriction enzyme digestion of isolated plasmid DNA followed by Sanger sequencing (Source BioScience, Nottingham, UK). Confirmed plasmids were then transfected into L. mexicana cell line in which both NT1 and NT2 were doubly knocked out (SUPKO) and derived from L. mexicana Cas9 [64] as described. Clones grown in medium containing 50 μg/mL neomycin (G418) were collected for further confirmation by PCR with genomic DNA using a forward primer of the transporter gene and a reverse primer of the plasmid.
(§3) Uptake assays using radiolabeled trypanocides and/or nucleosides were carried out as described previously. Briefly, parasite cultures were harvested, washed twice in assay buffer (33 mM HEPES, 98 mM NaCl, 4.6 mM KCl, 0.5 mM CaCl2, 0.07 mM MgSO4, 5.8 mM NaH3PO4, 0.03 mM MgCl2, 23 mM NaHCO3, 14 mM D-glucose, pH 7.3), then resuspended and adjusted to a density of 1 × 10^8 cells/mL in assay buffer. The radiolabeled permeant in the presence or absence of different concentrations of potential inhibitors reconstituted in 100 μL assay buffer was deposited on top of 250 μL oil mix in microcentrifuge tubes; 1 × 10^7 parasites in 100 μL assay buffer were added to the tube and incubated for a pre-determined interval. The reaction was stopped by the addition of 1 mL of a high concentration of ice-cold unlabeled substrate in assay buffer (‘stop solution’) and centrifugation, or by immediate centrifugation at […] as appropriate. The microcentrifuge tubes were flash-frozen, and the bottom of each tube containing the cell pellet was cut off and transferred to a scintillation vial. Cell pellets were lysed in 2% SDS, after which scintillation fluid (Scintlogic U, Lablogic) was added, followed by overnight incubation in the dark. Scintillation was measured in a 300SL (Hidex) scintillation counter (Hidex). All the assays were conducted in triplicate and analysis was carried out using Microsoft Excel and GraphPad Prism. All kinetic parameters were obtained on at least 3 separate occasions.
(§4) The dose-dependent uptake assay allowed for the affinity of nucleoside analogs to different nucleoside transporters to be determined by measuring the extent to which the analogs compete with and inhibit the uptake of radiolabel adenosine. This allowed for the determination of biochemical parameters such as Km and Vmax through the application of the Michaelis–Menten equation V0 = Vmax([substrate]/([substrate] + Km)). The 50% Inhibitory Concentration (IC50) of the purines and pyrimidines and their analogs was determined from non-linear regression to sigmoid curves with variable slope (Prism 8), and the IC50 of the inhibitor and the Km of the labeled permeant were then used to calculate the inhibition constant (Ki) of the analogs through the Cheng–Prusoff equation: Ki = IC50/(1 + (L/Km)), where L denotes the radiolabel concentration. The calculated Ki was in turn used to determine the Gibbs free energy (ΔG^0) of the inhibitor–transporter interaction using the equation: ΔG^0 = -RTln(Ki), where R represents the gas constant and T symbolizes the absolute temperature in Kelvin [104].

TvxNT3 = TvxNT3 (Trypanosoma vivax, UniProt F9WV62); experiment: cell-based; type: cell-based; details: Gibbs free energy of interaction, from Km or Ki
Text: as §2, §3, §4

T. vivax [9] = experiment: T. vivax EC50 (from Mabille et al.); type: cell-based, Trypanosoma vivax; details: from Table 8 data
T. congolense IL3000 [10] = test system: T. congolense IL3000; parameters: method as in Hulpia et al. [38]; details: values marked *; ref Hulpia et al. [38]; cited from earlier work
T. congolense 6C3 [11] = test system: T. congolense 6C3; parameters: method as in Hulpia et al. [38]; details: values marked *; ref Hulpia et al. [38]; cited from earlier work
T.b.b. B48 [12] = test system: T.b.b. B48; parameters: method as in Hulpia et al. [38]; details: compound marked *; ref Hulpia et al. [38]; cited from earlier work
T. evansi [13] = test system: T. evansi; parameters: method as in Hulpia et al. [38]; details: compound marked *; ref Hulpia et al. [38]; cited from earlier work
T. equiperdum [14] = test system: T. equiperdum; parameters: method as in Hulpia et al. [38]; details: compound marked *; ref Hulpia et al. [38]; cited from earlier work
[15] = Leishmania mexicana, read-out: SUPKO EC50, resazurin, promastigotes

TvxNT3, sequence (F9WV62 entry or part of it): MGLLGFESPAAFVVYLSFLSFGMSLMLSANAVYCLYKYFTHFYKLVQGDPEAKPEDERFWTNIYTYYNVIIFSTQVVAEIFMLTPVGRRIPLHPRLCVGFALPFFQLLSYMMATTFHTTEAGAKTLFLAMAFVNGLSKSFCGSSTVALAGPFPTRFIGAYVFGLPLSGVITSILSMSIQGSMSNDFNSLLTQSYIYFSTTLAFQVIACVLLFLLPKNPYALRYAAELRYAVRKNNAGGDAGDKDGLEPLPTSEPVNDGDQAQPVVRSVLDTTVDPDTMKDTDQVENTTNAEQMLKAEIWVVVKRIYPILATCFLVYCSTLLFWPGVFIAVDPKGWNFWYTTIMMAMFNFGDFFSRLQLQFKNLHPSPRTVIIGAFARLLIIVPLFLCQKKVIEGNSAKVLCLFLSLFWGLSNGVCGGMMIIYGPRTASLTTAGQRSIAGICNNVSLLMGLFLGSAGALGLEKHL

SMILES	EC50 (L. mexicana Cas9; Leishmania mexicana) [nM]	EC50 (L. mexicana SUPKO+TcoAT1; Leishmania mexicana) [nM]	SUPKO+TcoAT1 RF (SUPKO) (L. mexicana SUPKO+TcoAT1)	EC50 (L. mexicana SUPKO+TvxNT3; Leishmania mexicana) [nM]	SUPKO+TvxNT3 RF (SUPKO) (L. mexicana SUPKO+TvxNT3)	EC50 (L. mexicana SUPKO; [15]) [nM]	SUPKO RF (Cas9) (L. mexicana SUPKO)	EC50 (T. congolense IL3000 [1]) [nM]	EC50 (T. congolense 6C3 [2]) [nM]	T. congolense 6C3 RF (T. congolense 6C3 [2])	EC50 (T.b.b. B48 [3]) [nM]	EC50 (T. evansi [4]) [nM]	EC50 (T. equiperdum [5]) [nM]	EC50 [6] [nM]	SI T. congolense [7]	SI T. equiperdum [7]	SI T. evansi [7]	EC50 (T. vivax [8]) [nM]	further results
Nc1ncnc2c1c(C(F)(F)F)cn2[C@@H]1O[C@H](CO)[C@@H](O)[C@H]1O [FH6367, 7-trifluoromethyl-7-deazaadenosine]	26100 ± 6400	3790 ± 340	>26.4	7400 ± 1400	>13.5	> 100000	>3.83	1800 ± 440	890 ± 170	0.50	900 ± 130	680 ± 110	190 ± 30	490 ± 10	0.3	2.6	0.7	820 ± 90	–
Nc1ncnc2c1c(Br)cn2[C@@H]1O[C@H](CO)C[C@H]1O [FH7429_u, 7-bromo-7-deaza-3′-deoxyadenosine]	27300 ± 7000	27000 ± 5800	>7.4	42900 ± 12000	>2.33	> 250000	>3.6	0.69 ± 0.07	0.49 ± 0.09	0.71	4.8 ± 0.5	0.9 ± 0.22	0.51 ± 0.07	2180 ± 410	3158	4271	2430	18 ± 3	Ki (TcoAT1; 0.05 µM [3H]-adenosine, 10 s, IC50 converted to Ki, read-out: Ki on the transport of [3H]-adenosine): 259000 ± 11000 nM; ΔG0 (TcoAT1; Gibbs free energy of binding, from Km or Ki): -4.9 kcal/mol; ΔG0 (TvxNT3): -5.14 kcal/mol
Nc1ncnc2c1c(-c1ccccn1)cn2[C@@H]1O[C@H](CO)[C@@H](O)[C@H]1O [TH1008]	–	–	–	–	–	–	>8.5	–	–	0.33	–	–	–	–	110	303	466	12900 ± 4400	EC50 (L. mexicana Cas9; resazurin, promastigotes): 11700 ± 500 nM; EC50 (L. mexicana SUPKO+TcoAT1; resazurin, promastigotes): > 100000 nM; EC50 (L. mexicana SUPKO+TvxNT3; resazurin, promastigotes): > 100000 nM; EC50 (L. mexicana SUPKO; resazurin, promastigotes, read-out: SUPKO EC50): > 100000 nM; fold higher EC50 against T. vivax compared to T. congolense (T. vivax [9]): 10–165 fold; EC50 ([7]; resazurin, 96 well plates, read-out: HEK EC50): 18500 ± 1500 nM; EC50 (T. congolense IL3000 [10]): 170 ± 50 nM; EC50 (T. congolense 6C3 [11]): 56 ± 13 nM; EC50 (T.b.b. B48 [12]): 390 ± 30 nM; EC50 (T. evansi [13]): 40 ± 5 nM; EC50 (T. equiperdum [14]): 61 ± 5 nM
